Data on 24 compounds can be found in patent US20070254907A1, “COMPOSITIONS AND METHODS FOR CONTROLLING INFESTATION” (HATCHTECH PTY LTD, priority 2003, published 2007).

For one data set, the system named is Plutella xylostella eggs. The data set can be described thus: whole plant or invertebrate. Type of data set: in vivo. The method, then:
The ovicidal efficacy of 2-acetyl-1-tetralone was also tested against Plutella eggs.

The subject of another data set is lice eggs. The data set can be described thus: whole plant or invertebrate. Format: in vivo. The note with it: for inhibition at 10000 µM: Pediculus humanus, read-out: Ovicidal activity %; for Activity class 0 = inactive 1 = low 2 = med 3 = high: listed as of 10 mM.
Data set [1] has as its system Helicoverpa armigera eggs. The data set can be described thus: Egg hatching of Helicoverpa armigera. Conditions: for Number hatched / Number unhatched / % Inhibition: Table 13; for % Inhibition: relative to the control (100% MeOH).
The next data set relates to head lice eggs. Put plainly: Head lice egg hatching with formulated compound. Type of data set: in vivo. Conditions: 20 mM formulation, 10 minutes exposure, n=10 eggs. On the procedure:
Gravid female lice were permitted to lay eggs. The eggs were counted, inspected under a light microscope and all eggs that appeared undamaged were allocated to one of two treatment groups. One group was exposed to 5′-dimethyl-2,2′-dipyridyl in a formulation, while the second group was exposed to the formulation only. The protocol was as follows:
Treatments: 5'-dimethyl-2,2'dipyridyl (20mM) n=10
Vehicle control only n=10
Exposure time: 10 minutes
Wash time: 1 minute @˜37° C.
Incubation: All eggs were placed at 31° C. in a humid incubator and monitored for signs of development specifically of the eye and subsequent hatching, see Table 21.

The mark [2] stands for this setting: Plutella xylostella, read-out: Ovicidal activity %.
Where [3] appears, read: Plutella xylostella, Plutella (P), 10 mM, read-out: Ovicidal activity %.
Where [4] appears, read: Plutella (P), listed as of 1 mM.
Setting [5] is: Plutella (P), listed as of 10 mM.
Where [6] appears, read: Table 17, eggs laid on cloth, 1 mM in 1% diethoxyglycol.
[7] abbreviates: Table 14, 10 mM, dipped approximately 2 seconds, eggs on fine cloth.
[8] abbreviates: Table 10, eggs laid on cloth, 1 mM.
Setting [9] is: Table 10, eggs laid on cloth, 10 mM.
The mark [10] stands for this setting: Table 11, eggs laid on parafilm, 1 mM.
Setting [11] is: Table 11, eggs laid on parafilm, 10 mM.

Like-named read-outs stand apart in the source and are kept apart here.

As usually defined, the % Inhibition is the change of the read-out against control, counted positive when it falls.

For `N[C@@H]1CCCC[C@H]1O` (relative stereo) [Trans-2-aminocyclohexanol], the inhibition at 10000 µM in the data set on Plutella xylostella eggs (setting [2]) was 0%.
Regarding `Cc1cc(C)cc(C(=O)CC(=O)c2cc(C)cc(C)c2)c1` [1,3-Bis-(3,5-dimethyl-phenyl)-propane-1,3-dione], the inhibition at 10000 µM in the data set with Plutella xylostella eggs (setting [3]) is 0%. Further, in the data set with Plutella xylostella eggs (in vivo), the “Logit calc pLD50” value is given as 0.7 and the “Pref pLD50” value is on record as less than 2.
As to `COc1ccc(C(=O)CC(=O)c2ccc(OC)cc2)cc1` [1,3-Bis-(4-methoxy-phenyl)-propane-1,3-dione], the inhibition at 10000 µM in the data set with Plutella xylostella eggs (setting [3]) is 0%. In addition, in the data set with Plutella xylostella eggs (in vivo), the “Logit calc pLD50” value is given as 0.7 and the “Pref pLD50” value is less than 2.
Turning to `CC(C)(C)c1ccc(C(=O)CC(=O)c2ccc(C(C)(C)C)cc2)cc1` [1,3-Bis-(4-tert-butyl-phenyl)-propane-1,3-dione], the inhibition at 10000 µM in the data set on Plutella xylostella eggs (setting [3]) worked out at 0%. Also, in the data set with Plutella xylostella eggs (in vivo), the “Logit calc pLD50” value is listed as 0.7 and the “Pref pLD50” value is given as less than 2.
The corresponding values for `O=C(CC(=O)c1cccnc1)c1cccnc1` [1,3-dipyridin-3-yl-propane-1,3-dione] are 0%, 0.7 and less than 2.
For the compound `O=C(CC(=O)c1ccc(Cl)cc1)c1ccccc1` [1-(4-Chloro-phenyl)-3-phenyl-propane-1,3-dione], the inhibition at 10000 µM in the data set on lice eggs (Lice (L), 10 mM) was found to be 0%.
Turning to `c1ccc(Nc2ccccn2)nc1` [2,2-dipyridylamine], the Ovicidal activity % in the data set on Plutella xylostella eggs (Plutella (P), 1 mM) is listed as 0.00%; in the data set on Plutella xylostella eggs (Plutella (P), 10 mM), 100%. Also, the “Activity class 0 = inactive 1 = low 2 = med 3 = high” value in the data set on Plutella xylostella eggs (setting [4]) was 0 (A pLD50 value less than 2 is considered inactive (Class 0)); with Plutella xylostella eggs (setting [5]), 1 (a pLD50 value between 2 and 3 is considered weakly active (Class 1)).
Regarding `COC(=O)c1ccc(-c2ccc(C(=O)OC)cn2)nc1` [2,2′ Bipyridinyl-5,5′-dicarboxylic acid dimethyl ester], the “Activity class 0 = inactive 1 = low 2 = med 3 = high” value in the data set with lice eggs (Lice (L)) was 0 (A pLD50 value less than 2 is considered inactive (Class 0)). Moreover, the inhibition at 10000 µM with lice eggs (Lice (L), 10 mM) worked out at 0%.
For the compound `c1ccc(-c2cccc(-c3ccccn3)n2)nc1` [2,2′,6,2″-terpyridine], the Ovicidal activity % in the data set on lice eggs (Lice (L), 10 mM) was 0.00%; in the data set with Plutella xylostella eggs (Plutella (P), 1 mM) it was 100%. For the same compound, the “Activity class 0 = inactive 1 = low 2 = med 3 = high” value is 0 (A pLD50 value less than 2 is considered inactive (Class 0)) in the data set with lice eggs (Lice (L)) and 3 (a pLD50 greater than 4 is considered strongly active (Class 3)) in the data set with Plutella xylostella eggs (setting [4]). The “inhibition of Plutella egg hatching” value with Plutella xylostella eggs (1 mM, 1% diethoxyglycol) is “complete inhibition”. The compound further returned a Number hatched in the data set on Plutella xylostella eggs (setting [6]) of 0. Also, in the data set on Plutella xylostella eggs (setting [6]), the Number unhatched is given as 46. The “% Inhibition” value in the data set with Plutella xylostella eggs (Table 17, 1 mM, relative to control (1% diethoxyglycol)) amounted to 100%.
Take `Cc1nc(-c2nc(C)c(C)[nH]2)[nH]c1C` [2,2′-Bis(4,5-dimethylimidazole)]: the Ovicidal activity % with lice eggs (Lice (L), 10 mM) was found to be 0.00%. Moreover, the “Activity class 0 = inactive 1 = low 2 = med 3 = high” value in the data set with lice eggs (Lice (L)) is 0 (A pLD50 value less than 2 is considered inactive (Class 0)).
Consider `c1ccc(-c2ccc3ccccc3n2)nc1` [2-(2-pyridinyl)quinoline], for which, in the data set with Plutella xylostella eggs (10 mM), the “effect on egg hatching of Plutella xylostella (words)” value is listed as “able to inhibit egg hatching”. In addition, the inhibition at 10000 µM in the data set on Plutella xylostella eggs (setting [3]) is 100%. Further, the inhibition at 10000 µM in the data set with Plutella xylostella eggs (Plutella xylostella, Table 14, 10 mM, relative to control (100% ETOH), read-out: % Inhibition) stood at 96%. In the data set on Plutella xylostella eggs (setting [7]), this compound registered a Number hatched of 2 and a Number unhatched of 56. In addition, in the data set with Plutella xylostella eggs (in vivo), the “Logit calc pLD50” value is 3.3 and the “Pref pLD50” value is on record as more than 2.
In the case of `CC(=O)C1CCCCC1=O` (stereo not shown) [2-Acetylcyclohexanone], the inhibition at 10000 µM with Plutella xylostella eggs (setting [3]) came out at 0%. For the same compound, in the data set with Plutella xylostella eggs (in vivo), the “Logit calc pLD50” value is recorded as 0.7 and the “Pref pLD50” value is less than 2.
With `NCC(O)c1ccccc1` (stereo not shown) [2-Amino-1-phenyl ethanol], in the data set with Plutella xylostella eggs (in vivo), the Ovicidal activity % came to 0.00%.
With `Cc1ccccn1` [2-Picoline], the “Activity class 0 = inactive 1 = low 2 = med 3 = high” value in the data set with lice eggs (Lice (L)) is 0 (A pLD50 value less than 2 is considered inactive (Class 0)). Besides, in the data set with lice eggs (Lice (L), 10 mM), the inhibition at 10000 µM was 0%.
Turning to `Cc1ccnc(-c2cc(C)ccn2)c1` [4,4′-dimethyl-2,2′-dipyridyl], the “effect on egg hatching of Helicoverpa armigera (words)” value in data set [1] (1 mM) and in data set [1] (10 mM) was “significant inhibition of egg hatching” throughout. The Number hatched in data set [1] (1 mM) stood at 23; in data set [1] (10 mM), 8; in the data set on Plutella xylostella eggs (setting [8]), 0; with Plutella xylostella eggs (setting [9]) it was 0; with Plutella xylostella eggs (setting [10]), 10; in the data set on Plutella xylostella eggs (setting [11]), 0. In addition, the Number unhatched came out at 29 in data set [1] (1 mM); 43 in data set [1] (10 mM); 30 in the data set with Plutella xylostella eggs (setting [8]); 36 in the data set with Plutella xylostella eggs (setting [9]); 107 in the data set with Plutella xylostella eggs (setting [10]); 139 in the data set with Plutella xylostella eggs (setting [11]). Moreover, the “% Inhibition” value in data set [1] (1 mM) is given as 66%; in data set [1] (10 mM) it was 84%; in the data set with Plutella xylostella eggs (Table 10, eggs laid on cloth, 1 mM, relative to controls) it was 100%; in the data set on Plutella xylostella eggs (Table 10, eggs laid on cloth, 10 mM, relative to controls) it was 100%; with Plutella xylostella eggs (Table 11, eggs laid on parafilm, 1 mM, relative to controls), 91%; in the data set with Plutella xylostella eggs (Table 11, eggs laid on parafilm, 10 mM, relative to controls), 100%. In addition, in the data set on Plutella xylostella eggs (10 and 1 mM), the “effect on egg hatching of Plutella xylostella (words)” value was “significantly inhibit egg hatching”. Besides, the Ovicidal activity % with Plutella xylostella eggs (Plutella (P), 0.1 mM) amounted to 65.00%; with Plutella xylostella eggs (Plutella (P), 1 mM), 100.00%; in the data set with Plutella xylostella eggs (Plutella (P), 10 mM) it was 100.00%. Besides, in the data set with Plutella xylostella eggs (setting [4]), the “Activity class 0 = inactive 1 = low 2 = med 3 = high” value is 3 (a pLD50 greater than 4 is considered strongly active (Class 3)).
In the case of `CC(=O)NO` [Acetohydroxamic acid], in the data set on Plutella xylostella eggs (setting [3]), the inhibition at 10000 µM was 0%. Besides, in the data set on Plutella xylostella eggs (in vivo), the “Logit calc pLD50” value is given as 0.7 and the “Pref pLD50” value is on record as less than 2.
As for `O=C(NO)c1ccccc1` [Benzohydroxaminic acid], in the data set on Plutella xylostella eggs (Plutella (P), 10 mM), the Ovicidal activity % was found to be 0.00%. The “Activity class 0 = inactive 1 = low 2 = med 3 = high” value with Plutella xylostella eggs (setting [5]) was 0 (A pLD50 value less than 2 is considered inactive (Class 0)).
For the compound `CC(=O)CC(=O)c1ccccc1` [Benzoylacetone], the inhibition at 1000 µM with Plutella xylostella eggs (Plutella xylostella, Plutella (P), 1 mM, read-out: Ovicidal activity %) was determined as 0%. The inhibition at 10000 µM in the data set with Plutella xylostella eggs (setting [3]) was determined as 90%.
In the data set with Plutella xylostella eggs (Plutella (P), 10 mM), `CCCC(N)CO` [D-L-2-Amino-1-pentanol] had an Ovicidal activity % of 0.00%. Besides, the “Activity class 0 = inactive 1 = low 2 = med 3 = high” value with Plutella xylostella eggs (setting [5]) was 0 (A pLD50 value less than 2 is considered inactive (Class 0)). Besides, in the data set with Plutella xylostella eggs (in vivo), the “Logit calc pLD50” value is reported as 0.7 and the “Pref pLD50” value was less than 2.
Consider `c1ccc(CNCc2ccccn2)nc1` [Di(2-picolyl) amine], for which the “Activity class 0 = inactive 1 = low 2 = med 3 = high” value with lice eggs (Lice (L)) was 0 (A pLD50 value less than 2 is considered inactive (Class 0)). In addition, the inhibition at 10000 µM in the data set on lice eggs stood at 0%.
As to `O=C(CC(=O)c1ccccc1)c1ccccc1` [Dibenzoyl methane], the inhibition at 10000 µM in the data set with Plutella xylostella eggs (setting [2]) was found to be 90%.
`CCOC(=O)CNC(C)=O` [Ethyl-acetaimidoacetate] registered an Ovicidal activity % in the data set on Plutella xylostella eggs (Plutella (P), 10 mM) of 0.00%. Besides, the “Activity class 0 = inactive 1 = low 2 = med 3 = high” value with Plutella xylostella eggs (setting [5]) is 0 (A pLD50 value less than 2 is considered inactive (Class 0)).
On to `COC(=O)CN` [Glycine methyl ester], for which the inhibition at 10000 µM with Plutella xylostella eggs (setting [3]) was found to be 0%. Moreover, in the data set with Plutella xylostella eggs (in vivo), the “Logit calc pLD50” value is reported as 0.7 and the “Pref pLD50” value is reported as less than 2.
For the compound `Cc1ccc(-c2ccc(C)cn2)nc1` [Ha44], the “Stage of development: number of eggs with eye development” value with head lice eggs (Day 1), in the data set on head lice eggs (Day 4), in the data set with head lice eggs (Day 5), in the data set with head lice eggs (Day 6), in the data set with head lice eggs (Day 7) and in the data set with head lice eggs (Day 12) was 1 eye development each time. Also, the “Stage of development: number of eggs with no eye dev.” value in the data set with head lice eggs (Day 1) came to 9 no eye dev; with head lice eggs (Day 4) it was 8 no eye dev; with head lice eggs (Day 5) it was 8 no eye dev; with head lice eggs (Day 6), 8 no eye dev; in the data set on head lice eggs (Day 7), 8 no eye dev; in the data set on head lice eggs (Day 12), 8 no eye dev. Further, the “Stage of development: number of eggs hatched” value in the data set with head lice eggs (Day 4) is on record as 1 hatched.
